From patent US20240270821A1, “GIP/GLP1/GCG TRI-RECEPTOR AGONISTS AND USES THEREOF” (priority 2023, published 2024)
Where two headings read alike, the source gives them in different places. Starred links: 1 amine or outer side, 2 acyl side, 3 side chain; linkers in the order of their positions; H or OH if unused. Non-standard residues stand in square brackets, D forms with d. Residues, ends and D or L forms follow the SMILES beside them. Groups on a side chain read outwards from the residue. No end group written: not given here. *: point of attachment. C20 diacid = O=C(O)CCCCCCCCCCCCCCCCCCC(=O)*; C18 diacid = O=C(O)CCCCCCCCCCCCCCCCC(=O)*; αMePhe(2-F) = C[C@](N)(Cc1ccccc1F)C(=O)O; γGlu = O=C(O)[C@H](CCC(=O)[*:2])N[*:1]; αMe4Pal = C[C@](N)(Cc1ccncc1)C(=O)O; αMeY = C[C@](N)(Cc1ccc(O)cc1)C(=O)O; αMeF = C[C@](N)(Cc1ccccc1)C(=O)O; 4Pal = N[C@@H](Cc1ccncc1)C(=O)O; αMeL = CC(C)C[C@](C)(N)C(=O)O; αMeS = C[C@](N)(CO)C(=O)O; Orn = NCCC[C@H](N)C(=O)O; AEEA = NCCOCCOCC(=O)O; Aib = CC(C)(N)C(=O)O

Columns and labels:
Format in all cases: cell-based
hGIPR [1] = target: T1, hGIPR (Homo sapiens, UniProt P48546); test: Functional cAMP activity in the presence of 1% HSA; settings: read-out: cAMP Rel EC50, hGIPR
T1 sequence (P48546 22-466): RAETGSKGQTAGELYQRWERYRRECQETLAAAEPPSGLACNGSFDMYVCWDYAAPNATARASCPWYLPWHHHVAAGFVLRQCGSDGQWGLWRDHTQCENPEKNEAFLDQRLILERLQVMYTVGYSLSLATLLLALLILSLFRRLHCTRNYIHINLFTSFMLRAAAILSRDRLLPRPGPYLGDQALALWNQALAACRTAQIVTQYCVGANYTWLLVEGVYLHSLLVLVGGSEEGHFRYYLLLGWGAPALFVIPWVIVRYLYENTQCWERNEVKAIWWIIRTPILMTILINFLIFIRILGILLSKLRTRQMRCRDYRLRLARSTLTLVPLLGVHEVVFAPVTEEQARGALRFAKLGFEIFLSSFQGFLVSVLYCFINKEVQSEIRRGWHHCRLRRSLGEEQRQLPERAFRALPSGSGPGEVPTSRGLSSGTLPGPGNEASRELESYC

hGLP-1R [2] = target: T2, hGLP-1R (Homo sapiens, UniProt P43220); test: Functional cAMP activity in the presence of 1% HSA; settings: read-out: cAMP Rel EC50, hGLP-1R
T2 sequence (P43220 24-463): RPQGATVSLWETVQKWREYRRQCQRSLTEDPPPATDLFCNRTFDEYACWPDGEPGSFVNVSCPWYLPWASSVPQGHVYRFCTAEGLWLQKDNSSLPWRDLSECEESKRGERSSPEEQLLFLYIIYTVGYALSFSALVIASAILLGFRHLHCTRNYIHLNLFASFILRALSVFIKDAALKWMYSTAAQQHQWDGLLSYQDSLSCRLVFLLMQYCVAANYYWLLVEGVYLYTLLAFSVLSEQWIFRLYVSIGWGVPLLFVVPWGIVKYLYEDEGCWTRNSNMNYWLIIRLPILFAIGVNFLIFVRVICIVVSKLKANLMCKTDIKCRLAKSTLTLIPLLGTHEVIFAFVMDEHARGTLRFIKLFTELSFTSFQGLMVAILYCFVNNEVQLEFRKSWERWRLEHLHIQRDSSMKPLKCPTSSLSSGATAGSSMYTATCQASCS

human GcgR = human GcgR (Homo sapiens, UniProt P47871); test: Functional cAMP activity in the presence of 1% HSA
human GcgR, sequence (P47871 26-477): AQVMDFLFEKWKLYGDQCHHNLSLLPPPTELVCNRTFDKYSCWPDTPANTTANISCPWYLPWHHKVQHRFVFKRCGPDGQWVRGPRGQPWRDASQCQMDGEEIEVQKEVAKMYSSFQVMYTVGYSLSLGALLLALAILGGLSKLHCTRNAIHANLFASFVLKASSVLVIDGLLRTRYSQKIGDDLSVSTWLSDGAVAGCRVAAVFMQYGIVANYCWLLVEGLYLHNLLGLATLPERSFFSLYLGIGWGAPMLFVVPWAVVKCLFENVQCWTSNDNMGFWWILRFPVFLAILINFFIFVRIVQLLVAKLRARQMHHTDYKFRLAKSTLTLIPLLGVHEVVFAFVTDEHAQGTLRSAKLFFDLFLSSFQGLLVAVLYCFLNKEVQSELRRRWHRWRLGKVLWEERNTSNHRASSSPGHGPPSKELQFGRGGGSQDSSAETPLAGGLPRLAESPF

hGIPR [3] = target: T1, hGIPR; test: Functional cAMP activation in the presence of 0.1% casein (no HSA);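 on Relative cAMP EC50, hGIPR: intracellular cAMP rise after 30 min at 37 °C read by HTRF against a standard curve, scaled between buffer alone (0%) and top control ligand concentration (100%), four-parameter fit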;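 on Relative cAMP EC50, hGLP-1R: intracellular cAMP rise after 30 min at 37 °C read by HTRF, normalized between buffer only (0%) and maximal control ligand (100%), four-parameter variable-slope fit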;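 on Relative cAMP EC50, hGcgR: intracellular cAMP rise after 30 min at 37 °C, read by HTRF against a cAMP standard curve, scaled from buffer only (0%) to maximal control ligand response (100%)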
hGLP-1R [4] = target: T2, hGLP-1R; test: as above
hGcgR = hGcgR (Homo sapiens, UniProt P47871); test: as above;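 further: intracellular cAMP rise after 30 min at 37 °C, read by HTRF against a cAMP standard curve, scaled from buffer only (0%) to maximal control ligand response (100%)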
hGcgR, sequence (P47871 26-477): as above

[5] = in the presence of 0.1% casein (no HSA), geometric mean, read-out: Relative cAMP EC50, hGIPR
[6] = in the presence of 0.1% casein (no HSA), geometric mean, read-out: Relative cAMP EC50, hGLP-1R
[7] = in the presence of 0.1% casein (no HSA), geometric mean, read-out: Relative cAMP EC50, hGcgR
[8] = read-out: Relative cAMP EC50, hGIPR
[9] = read-out: Relative cAMP EC50, hGLP-1R
[10] = read-out: Relative cAMP EC50, hGcgR
[11] = HEK-293 clonal cell line, 1% HSA, geometric mean of relative EC50

Row | Compound | EC50 (hGIPR [1]) | EC50 (hGLP-1R [2]) | EC50 (human GcgR; read-out: cAMP Rel EC50, hGcgR) | EC50 (hGIPR [3]; [5]) | EC50 (hGLP-1R [4]; [6]) | EC50 (hGcgR; [7]) | also measured
1 | CC[C@H](C)[C@H](NC(=O)[C@H](Cc1ccccc1)NC(=O)[C@H](C)NC(=O)[C@](C)(Cc1ccncc1)NC(=O)[C@H](CCC(N)=O)NC(=O)[C@H](C)NC(=O)[C@H](CCCCNC(=O)CC[C@H](NC(=O)CC[C@H](NC(=O)CCCCCCCCCCCCCCCCC(=O)O)C(=O)O)C(=O)O)NC(=O)[C@H](CCCN)NC(=O)[C@H](CC(=O)O)NC(=O)[C@H](CC(C)C)NC(=O)[C@](C)(CC(C)C)NC(=O)[C@H](CCC(N)=O)NC(=O)[C@H](CO)NC(=O)[C@H](Cc1ccncc1)NC(=O)[C@H](CC(=O)O)NC(=O)[C@H](CO)NC(=O)[C@@H](NC(=O)[C@H](Cc1ccccc1)NC(=O)[C@@H](NC(=O)CNC(=O)[C@H](CCC(N)=O)NC(=O)C(C)(C)NC(=O)[C@@H](N)Cc1ccc(O)cc1)[C@@H](C)O)[C@@H](C)O)C(=O)N[C@@H](CCC(=O)O)C(=O)N[C@@H](Cc1ccc(O)cc1)C(=O)N[C@@H](CC(C)C)C(=O)N[C@H](C(=O)N[C@@H](CCC(=O)O)C(=O)N[C@H](C)C(=O)NCC(=O)N1CCC[C@H]1C(=O)N[C@@H](CO)C(=O)N[C@@H](CO)C(=O)NCC(=O)N[C@@H](C)C(=O)N1CCC[C@H]1C(=O)N1CCC[C@H]1C(=O)N1CCC[C@H]1C(=O)N[C@@H](CO)C(=O)NCC(=O)N[C@@H](CO)C(=O)N[C@@H](CCC(=O)O)C(N)=O)[C@@H](C)CC [Example 1023] | 26 nM | 230 nM | 856 nM | 0.235 nM | 1.47 nM | 3.82 nM | 
2 | H-Y[Aib]QGTFTSD[4Pal]S[Orn][αMeL]LDKK([γGlu-γGlu-C18 diacid])AQ[αMe4Pal]AFIEYLIAGGPSSGEPPPSGE-NH2 [Example 979] | 19.2 nM | 257 nM | 359 nM | 0.181 nM | 2.72 nM | 3.34 nM | 
3 | H-Y[Aib]QGTFTSD[4Pal]SQ[αMeL]LD[Orn]K([dE-γGlu-C18 diacid])AQ[αMe4Pal]QFIE[αMeY]LLAGGPSSGAPPPSGSEEE-NH2 [Example 1084] | 17.2 nM | 761 nM | 1390 nM | 0.0975 nM | 10.3 nM | 11.5 nM | 
4 | H-Y[Aib]QGTFTSD[4Pal]SQ[αMeL]LDKK([γGlu-γGlu-C18 diacid])AQ[αMe4Pal]AFIE[αMe4Pal]LIE[Aib]GPSSGEPPPSGE-NH2 [Example 1123] | 3.89 nM | 191 nM | 441 nM | 0.101 nM | 4.47 nM | 5.53 nM | 
5 | Y[Aib]QGT[αMePhe(2-F)]TSD[4Pal][αMeS]I[αMeL]LD[Orn]K([AEEA-γGlu-C18 diacid])AQ[αMe4Pal]EFI[dE][αMeY]LIEGGPSSGEPPPEGTGE-NH2 [Example 763] | 1.16 nM | 42.5 nM | 222 nM |  |  |  | EC50 (hGIPR [3]; [8]): 0.00719 nM; EC50 (hGLP-1R [4]; [9]): 0.302 nM; EC50 (hGcgR; [10]): 1.57 nM
6 | H-Y[Aib]QGT[αMePhe(2-F)]TSD[4Pal][αMeS]I[αMeL]LD[Orn]K([AEEA-γGlu-γGlu-C18 diacid])AQ[αMe4Pal]EFI[dE][αMeY]LIEGGPSSGEPPPSGSE-NH2 [Example 1179] | 0.58 nM | 37.9 nM | 197 nM | 0.0102 nM | 0.652 nM | 2.87 nM | 
7 | H-Y[Aib]QGTFTSDFS[Orn][αMeL]LDKK([γGlu-AEEA-γGlu-C18 diacid])AQ[Aib]AFIEYLLE[Aib]GHSSGAPPPSGS-NH2 [Example 245] | 10.5 nM | 540 nM | 1120 nM | 0.0684 nM | 5.99 nM | 7.07 nM | 
8 | H-Y[Aib]QGT[αMeF]TSD[4Pal][αMeS]I[αMeL]LD[Orn]K([AEEA-γGlu-C18 diacid])AQ[αMe4Pal]EFI[dE][αMeY]LIEGGPSSGAPPPSGSE-NH2 [Example 1166] | 1.1 nM | 65.6 nM | 427 nM | 0.00999 nM | 0.478 nM | 2.94 nM | 
9 | H-Y[Aib]QGT[αMePhe(2-F)]TSD[4Pal][αMeS]I[αMeL]LD[Orn]K([γGlu-γGlu-C18 diacid])AQ[αMe4Pal]EFI[dE][αMeY]LIEGGPSSGAPPPEGTGE-NH2 [Example 764] | 0.649 nM | 38.8 nM |  |  |  |  | EC50 (human GcgR): 146 nM; EC50 (hGIPR [3]): 0.00626 nM; EC50 (hGLP-1R [4]): 0.289 nM; EC50 (hGcgR): 1.63 nM
10 | H-Y[Aib]QGT[αMePhe(2-F)]TSD[4Pal]SI[αMeL]LDKK([γGlu-γGlu-C18 diacid])AQ[Aib][Orn]FIEYLEEGGPSSGEPPPSGSEE-NH2 [Example 635] |  |  |  |  |  |  | EC50 (hGIPR [1]; [11]): 2.7 nM; EC50 (hGLP-1R [2]; [11]): 53.9 nM; EC50 (human GcgR; HEK-293 clonal cell line, 1% HSA, geometric mean of relative EC50, read-out: cAMP Rel EC50, hGcgR): 753 nM; EC50 (hGIPR [3]; in the presence of 0.1% casein (no HSA), geometric mean of relative EC50, read-out: Relative cAMP EC50, hGIPR): 0.0405 nM; EC50 (hGLP-1R [4]; in the presence of 0.1% casein (no HSA), geometric mean of relative EC50, read-out: Relative cAMP EC50, hGLP-1R): 0.625 nM; EC50 (hGcgR; in the presence of 0.1% casein (no HSA), geometric mean of relative EC50, read-out: Relative cAMP EC50, hGcgR): 7.09 nM
11 | Y[Aib]QGTFTSD[4Pal]SQ[αMeL]LDKK([AEEA-γGlu-C18 diacid])AQ[Aib]AFIE[αMeY]LIEGGPSSGAPPPSGS-NH2 [Example 838] | 23.2 nM | 72.2 nM | 3070 nM | 0.225 nM | 0.379 nM | 20.7 nM | 
12 | H-Y[Aib]QGTFTSDFS[Orn][αMeL]LDKK([AEEA-γGlu-C18 diacid])AQ[Aib]AFIEYLLAGGPSSGAPPPSGE[AEEA]-NH2 [Example 91] | 23.9 nM | 356 nM | 1200 nM | 0.243 nM | 3.39 nM | 9.13 nM | 
13 | H-Y[Aib]QGTFTSD[4Pal]S[Orn][αMeL]LD[Orn]K([γGlu-γGlu-C18 diacid])AQ[αMe4Pal]EFIEYLLAGGPSSGAPPPSGSEE-NH2 [Example 1003] | 15.9 nM | 1950 nM | 371 nM | 0.272 nM | 42.4 nM | 5.07 nM | 
14 | CC[C@H](C)[C@H](NC(=O)[C@H](Cc1ccccc1)NC(=O)[C@H](C)NC(=O)[C@H](CCCNC(=N)N)NC(=O)[C@H](CCC(N)=O)NC(=O)[C@H](C)NC(=O)[C@H](CCCCNC(=O)COCCOCCNC(=O)CC[C@H](NC(=O)CCCCCCCCCCCCCCCCCCC(=O)O)C(=O)O)NC(=O)[C@H](CCCCN)NC(=O)[C@H](CC(=O)O)NC(=O)[C@H](CC(C)C)NC(=O)[C@](C)(CC(C)C)NC(=O)[C@@H](NC(=O)[C@H](CO)NC(=O)[C@H](Cc1ccc(O)cc1)NC(=O)[C@H](CC(=O)O)NC(=O)[C@H](CO)NC(=O)[C@@H](NC(=O)[C@H](Cc1ccccc1)NC(=O)[C@@H](NC(=O)CNC(=O)[C@H](CCC(N)=O)NC(=O)C(C)(C)NC(=O)[C@@H](N)Cc1ccc(O)cc1)[C@@H](C)O)[C@@H](C)O)[C@@H](C)CC)C(=O)N[C@@H](CCC(=O)O)C(=O)N[C@@H](Cc1ccc(O)cc1)C(=O)N[C@@H](CC(C)C)C(=O)N[C@@H](CC(C)C)C(=O)N[C@@H](CCC(=O)O)C(=O)NCC(=O)NCC(=O)N1CCC[C@H]1C(=O)N[C@@H](CO)C(=O)N[C@@H](CO)C(=O)NCC(=O)N[C@@H](CCC(=O)O)C(=O)N1CCC[C@H]1C(=O)N1CCC[C@H]1C(=O)N1CCC[C@H]1C(=O)N[C@@H](CO)C(=O)NCC(N)=O [Example 313] (H-Y[Aib]QGTFTSDYSI[αMeL]LDKK([AEEA-γGlu-C20 diacid])AQRAFIEYLLEGGPSSGEPPPSG-NH2) | 86.4 nM | 135 nM | 3290 nM | 0.49 nM | 0.304 nM | 4.11 nM | 
15 | H-Y[Aib]QGT[αMePhe(2-F)]TSD[4Pal][αMeS]I[αMeL]LD[Orn]K([γGlu-γGlu-C18 diacid])AQ[Aib][Orn]FI[dE][αMeY]LSEGGPSSGEPPPSGSE-NH2 [Example 560] | 7.94 nM | 52 nM | 355 nM |  |  |  | EC50 (hGIPR [3]; [8]): 0.113 nM; EC50 (hGLP-1R [4]; [9]): 0.883 nM; EC50 (hGcgR; [10]): 3.8 nM
